Assay results: ChEMBL document CHEMBL4840363, “Genome-Guided Discovery of Highly Oxygenated Aromatic Polyketides, Saccharothrixins D-M, from the Rare Marine Actinomycete Saccharothrix sp. D09” (J Nat Prod, 2021)
Values after ≈ are worked out from the molar mass of the structure shown.

Assays:
Helicobacter pylori [1] = experiment: Antibacterial activity against Helicobacter pyroli 159 assessed as inhibition of bacterial growth incubated for 48 hrs; assay type: functional
A549 = experiment: Cytotoxicity against human A549 cells assessed as reduction in cell viability by MTT assay; assay type: functional, cell-based
MCF7 = experiment: Cytotoxicity against human MCF7 cells assessed as reduction in cell viability by MTT assay; assay type: functional, cell-based
HCT-116 = experiment: Cytotoxicity against human HCT-116 cells assessed as reduction in cell viability by MTT assay; assay type: functional, cell-based
HepG2 = experiment: Cytotoxicity against human HepG2 cells assessed as reduction in cell viability by MTT assay; assay type: functional, cell-based
RAW264.7 = experiment: Antiinflammatory activity against mouse RAW264.7 cells assessed as inhibition of LPS induced NO production preincubated for 30 mins followed by LPS addition measured after 48 hrs by griess reagent based assay; assay type: functional, cell-based
Helicobacter pylori [2] = experiment: Antibacterial activity against Helicobacter pyroli G27 assessed as inhibition of bacterial growth incubated for 48 hrs; assay type: functional
Staphylococcus aureus = experiment: Antibacterial activity against Staphylococcus aureus ATCC25923 assessed as inhibition of bacterial growth incubated for 48 hrs; assay type: functional

Structure (SMILES)	MIC (Helicobacter pylori [1])	IC50 (A549)	IC50 (MCF7)	IC50 (HCT-116)	IC50 (HepG2)	IC50 (RAW264.7)	MIC (Helicobacter pylori [2])	MIC (Staphylococcus aureus)
COc1cccc2c1[C@H](O)[C@]13C=C[C@]4(O)CC(C)=CC(=O)[C@@H]4[C@]1(O3)[C@H]2O	32 µg/mL (≈ 89.8 µM)	> 20 µM	> 20 µM	> 20 µM	> 20 µM	–	–	–
COc1cccc2c1[C@H](O)[C@]13C=C[C@]4(O)CC(C)=CC(=O)[C@@H]4[C@]1(O3)C2=O	32 µg/mL (≈ 90.3 µM)	> 20 µM	> 20 µM	> 20 µM	> 20 µM	28 µM	–	–
Cc1cc(O[C@H]2O[C@@H](C)[C@H](O)[C@@H](O)[C@H]2O)c2c3c(ccc2c1)C(=O)c1c(O)cccc1[C@@H]3O	16 µg/mL (≈ 35.4 µM)	> 20 µM	> 20 µM	> 20 µM	> 20 µM	–	16 µg/mL (≈ 35.4 µM)	16 µg/mL (≈ 35.4 µM)
